71 molecules from ChEMBL document CHEMBL5512668, “Macrocyclic Azapeptide Nitriles: Structure-Based Discovery of Potent SARS-CoV-2 Main Protease Inhibitors as Antiviral Drugs” (J Med Chem, 2024) can be followed below.

As a reminder, the inhibition is the percentage by which the read-out fell short of the control. Read a low inhibition as a weak effect. In general, IC50 refers to the midpoint of a concentration-inhibition curve. What is called Ki is the equilibrium dissociation constant of an inhibitor or competing ligand from its target. Read a low Ki as tighter binding.

One assay has as its target Replicase polyprotein 1ab (Severe acute respiratory syndrome coronavirus 2) (UniProt P0DTD1). The note with it: dose 1.0 µM, time 65.0 min.
As for `CN(C(=O)[C@H](Cc1ccccc1)NC(=O)C(C)(C)Oc1ccc(Cl)cc1Cl)N(C#N)Cc1ccc(Cl)cc1`, the inhibition turned out to be 17%.

Take `CN(C(=O)[C@H](Cc1ccc(Cl)cc1)NC(=O)[C@@H](NC(=O)c1cccs1)C(C)(C)C)N(C#N)Cc1cccc(Cl)c1F`: the inhibition was found to be 6%.

`CN(C(=O)[C@H](Cc1ccccc1)NC(=O)OCc1ccccc1)N(C#N)CC1CCNC1=O` (some centres undefined): the inhibition amounted to 21%.

For the molecule `CN(C(=O)[C@@H](NC(=O)[C@@H](NC(=O)c1cccs1)C(C)(C)C)C1CCCCC1)N(C#N)Cc1cccc(Cl)c1F`, the inhibition was 21%.

As for `CN(C(=O)[C@@H]1Cc2ccccc2CN1C(=O)OCc1ccccc1)N(C#N)Cc1ccc(Cl)cc1`, the inhibition is 26%.

For the molecule `CN(C(=O)[C@@H]1CCCN1C(=O)[C@@H](NC(=O)c1cccs1)C(C)(C)C)N(C#N)Cc1cccc(Cl)c1F`, the inhibition worked out at 5%.

`CN(C(=O)[C@@H](NC(=O)[C@@H](NC(=O)c1cccs1)C(C)(C)C)C(c1ccccc1)c1ccccc1)N(C#N)Cc1cccc(Cl)c1F` showed an inhibition of 10%.

The molecule `CN(C(=O)[C@@H]1Cc2ccccc2CN1C(=O)COc1ccc(Cl)cc1Cl)N(C#N)Cc1ccc(Cl)cc1` had an inhibition of 11%.

On to `CN(C(=O)[C@H](Cc1ccccc1)NC(=O)[C@@H]1Cc2ccccc2CN1C(=O)c1cccs1)N(C#N)Cc1ccc(Cl)cc1`, for which the inhibition was determined as 21%.

`CN(C(=O)[C@H](Cc1ccccc1)NC(=O)[C@@H]1CCCN1C(=O)c1cccs1)N(C#N)Cc1ccc(Cl)cc1` showed an inhibition of 13%.

Turning to `CN(C(=O)[C@H](Cc1ccccc1)NC(=O)C1(Oc2ccc(Cl)cc2Cl)CCCCC1)N(C#N)Cc1ccc(Cl)cc1`, the inhibition was found to be 7%.

In turn, `COc1cccc(NC2(C(=O)N[C@@H](Cc3ccccc3)C(=O)N(C)N(C#N)Cc3ccc(Cl)cc3)CCCC2)c1` registered an inhibition of 12%.

As to `CC(C)c1ccc(OCC(=O)N[C@@H](Cc2ccccc2)C(=O)N(C)N(C#N)Cc2ccc(Cl)cc2)cc1`, the inhibition was determined as 21%.

Take `CN(C(=O)[C@H](Cc1ccccc1)NC(=O)C1(Oc2ccc(Cl)cc2Cl)CCC1)N(C#N)Cc1ccc(Cl)cc1`: the inhibition stood at 8%.

Another assay deals with Replicase polyprotein 1ab (Severe acute respiratory syndrome coronavirus 2, UniProt P0DTD1).
Conditions: not given
Molecule `CN(C(=O)[C@H](Cc1ccccc1)NC(=O)OCc1ccccc1)N(C#N)Cc1ccco1` registered an IC50 of 206 nM.

On to `CN(C(=O)[C@H](Cc1cccc(F)c1)NC(=O)[C@@H](NC(=O)c1cccs1)C(C)(C)C)N(C#N)Cc1cccc(Cl)c1F`, for which half-maximal inhibition (IC50) required 4 nM.

With `CN(C(=O)[C@H](Cc1ccc(F)cc1)NC(=O)[C@@H](NC(=O)c1cccs1)C(C)(C)C)N(C#N)Cc1cccc(Cl)c1F`, the IC50 turned out to be 25 nM.

`CN(C(=O)[C@H](Cc1ccccc1)NC(=O)COc1ccc(Cl)cc1Cl)N(C#N)Cc1ccc(Cl)cc1` had an IC50 of 1820 nM.

Molecule `CN1C(=O)[C@H](Cc2ccccc2)N(C(=O)COc2ccc(Cl)cc2Cl)CCCCOc2ccc(F)cc2CN1C#N` showed an IC50 of 42 nM.

Turning to `COc1c(Cl)cccc1CN(C#N)N(C)C(=O)[C@H](Cc1ccccc1)NC(=O)OCc1ccccc1`, it took 425 nM to reach half-maximal inhibition (IC50).

With `CN(C(=O)[C@H](Cc1ccccc1)NC(=O)C1(NC(=O)c2cccs2)CC1)N(C#N)Cc1ccc(Cl)cc1`, half-maximal inhibition (IC50) required 566 nM.

Take `COc1cccc(OCC(=O)N[C@@H](Cc2ccccc2)C(=O)N(C)N(C#N)Cc2ccc(Cl)cc2)c1`: 1230 nM corresponded to half-maximal inhibition (IC50).

Take `CN(C(=O)[C@H](Cc1ccccc1)NC(=O)COc1ccc(Cl)cc1)N(C#N)Cc1ccc(Cl)cc1`: inhibition was half-maximal at 1300 nM (IC50).

In turn, `CN1C(=O)[C@H](Cc2ccccc2)N(C(=O)COc2ccc(Cl)cc2Cl)CCCCCOc2ccc(F)cc2CN1C#N` gave an IC50 of 48 nM.

As to `CN(C(=O)[C@H](Cc1ccccc1)NC(=O)OCc1ccccc1)N(C#N)Cc1ccc(Br)cc1Cl`, half-maximal inhibition (IC50) required 143 nM.

The molecule `CN(C(=O)[C@H](Cc1ccccc1)NC(=O)CCc1ccc(F)c(F)c1)N(C#N)Cc1ccc(Cl)cc1` displayed an IC50 of 1420 nM.

With `COc1ccc(Cl)c(F)c1CN(C#N)N(C)C(=O)[C@H](Cc1ccccc1)NC(=O)OCc1ccccc1`, it took 392 nM to reach half-maximal inhibition (IC50).

`CN(C(=O)[C@H](Cc1ccccc1)NC(=O)COc1cccc2ccccc12)N(C#N)Cc1ccc(Cl)cc1` displayed an IC50 of 1060 nM.

Consider `CN(C(=O)[C@H](Cc1ccccc1)NC(=O)COc1cccc(Cl)c1)N(C#N)Cc1ccc(Cl)cc1`, for which half-maximal inhibition (IC50) required 1060 nM.

Regarding `CN(C(=O)[C@H](Cc1ccccc1)NC(=O)OCc1ccccc1)N(C#N)Cc1ccc(Cl)cc1`, the half-inhibitory concentration (IC50) amounted to 260 nM.

Consider `Cc1csc(C(=O)N[C@H](C(=O)N[C@@H](Cc2ccccc2)C(=O)N(C)N(C#N)Cc2ccc(Cl)cc2)C(C)(C)C)c1`, for which the concentration for half-maximal inhibition (IC50) was found to be 71 nM.

`CN(C(=O)[C@H](Cc1ccccc1)NC(=O)[C@@H](NC(=O)C1(F)CC1)C(C)(C)C)N(C#N)Cc1ccc(Cl)cc1` returned an IC50 of 50 nM.

Molecule `CN(C(=O)[C@H](Cc1ccccc1)NC(=O)COc1cccc(F)c1Br)N(C#N)Cc1ccc(Cl)cc1` had an IC50 of 1020 nM.

`CN(C(=O)[C@H](Cc1ccccc1)NC(=O)COc1ccc(F)c(F)c1)N(C#N)Cc1ccc(Cl)cc1` returned an IC50 of 1150 nM.

`CN(C(=O)[C@H](Cc1ccccc1)NC(=O)OCc1ccccc1)N(C#N)Cc1cccc(Cl)c1F` registered an IC50 of 35 nM.

As to `CN1C(=O)[C@H](Cc2ccccc2)N(C(=O)COc2ccc(Cl)cc2Cl)CCCOc2ccc(F)cc2CN1C#N`, the IC50 was determined as 25 nM.

As to `CN(C(=O)[C@H](Cc1ccccc1)NC(=O)c1cc2cc(Cl)ccc2[nH]1)N(C#N)Cc1ccc(Cl)cc1`, the IC50 worked out at 77 nM.

Molecule `CN(C(=O)[C@H](Cc1ccccc1)NC(=O)OCc1ccccc1)N(C#N)Cc1cccc(F)c1` displayed a concentration for half-maximal inhibition (IC50) of 142 nM.

For `CN(C(=O)[C@H](Cc1ccccc1)NC(=O)COc1ccc(F)cc1)N(C#N)Cc1ccc(Cl)cc1`, half-maximal inhibition (IC50) was put at 1220 nM.

Molecule `COc1cccc(CN(C#N)N(C)C(=O)[C@H](Cc2ccccc2)NC(=O)OCc2ccccc2)c1F` displayed an IC50 of 118 nM.

In the case of `CN(C(=O)[C@H](Cc1ccccc1)NC(=O)CNc1ccc(F)cc1F)N(C#N)Cc1ccc(Cl)cc1`, the IC50 was determined as 952 nM.

For `CN(C(=O)[C@H](Cc1ccccc1)NC(=O)COc1ccc2c(c1)NC(=O)CC2)N(C#N)Cc1ccc(Cl)cc1`, half-maximal inhibition (IC50) required 960 nM.

Take `CN(C(=O)[C@H](Cc1ccccc1)NC(=O)OCc1ccccc1)N(C#N)Cc1ccsc1`: 416 nM corresponded to half-maximal inhibition (IC50).

Consider `CN(C(=O)[C@H](Cc1ccccc1)NC(=O)CNc1ccc(F)c(F)c1)N(C#N)Cc1ccc(Cl)cc1`, for which the half-inhibitory concentration (IC50) came out at 343 nM.

In turn, `CN(C(=O)[C@H](Cc1ccccc1)NC(=O)OCc1ccccc1)N(C#N)Cc1ccc(F)cc1` yielded an IC50 of 294 nM.

`COc1ccc(NCC(=O)N[C@@H](Cc2ccccc2)C(=O)N(C)N(C#N)Cc2ccc(Cl)cc2)c(Cl)c1`: the IC50 worked out at 673 nM.

In turn, `CN(C(=O)[C@H](Cc1ccccc1Cl)NC(=O)[C@@H](NC(=O)c1cccs1)C(C)(C)C)N(C#N)Cc1cccc(Cl)c1F` registered an IC50 of 26 nM.

`COc1ccc(CN(C#N)N(C)C(=O)[C@H](Cc2ccccc2)NC(=O)OCc2ccccc2)cc1` registered a concentration for half-maximal inhibition (IC50) of 345 nM.

`CN(C(=O)[C@H](Cc1ccccc1F)NC(=O)[C@@H](NC(=O)c1cccs1)C(C)(C)C)N(C#N)Cc1cccc(Cl)c1F` came in with an IC50 of 19 nM.

`COc1ccc(OCC(=O)N[C@@H](Cc2ccccc2)C(=O)N(C)N(C#N)Cc2ccc(Cl)cc2)cc1`: the IC50 was 1230 nM.

The molecule `CN(C(=O)[C@H](Cc1ccccc1)NC(=O)OCc1ccccc1)N(C#N)Cc1ccc(Br)c(F)c1` had an IC50 of 206 nM.

Consider `CN(C(=O)[C@H](Cc1ccccc1)NC(=O)OCc1ccccc1)N(C#N)Cc1ccc(Br)cc1F`, for which the IC50 is 104 nM.

Take `CCCS(=O)(=O)N[C@H](C(=O)N[C@@H](Cc1ccccc1)C(=O)N(C)N(C#N)Cc1ccc(Cl)cc1)C(C)(C)C`: inhibition was half-maximal at 156 nM (IC50).

The molecule `CN(C(=O)[C@H](Cc1ccccc1)NC(=O)OCc1ccccc1)N(C#N)Cc1ccccc1Cl` displayed an IC50 of 149 nM.

In turn, `CN(C(=O)[C@H](Cc1ccccc1)NC(=O)[C@@H](NC(=O)c1ccc(-c2cccs2)s1)C(C)(C)C)N(C#N)Cc1ccc(Cl)cc1` gave an IC50 of 534 nM.

In the case of `CN1C(=O)[C@H](Cc2ccccc2)NC(=O)COCCOc2ccc(F)cc2CN1C#N`, 226 nM corresponded to half-maximal inhibition (IC50).

Turning to `COc1cccc2[nH]c(C(=O)N[C@@H](Cc3ccccc3)C(=O)N(C)N(C#N)Cc3ccc(Cl)cc3)cc12`, the IC50 turned out to be 23 nM.

`CN(C(=O)[C@H](Cc1ccccc1)NC(=O)OCc1ccccc1)N(C#N)Cc1c(F)cc(Br)cc1F` yielded a concentration for half-maximal inhibition (IC50) of 81 nM.

`CN(C(=O)[C@H](Cc1ccccc1)NC(=O)OCc1ccccc1)N(C#N)Cc1cc(Cl)ccc1F` came in with an IC50 of 119 nM.

Turning to `CN(C(=O)[C@H](Cc1ccccc1)NC(=O)OCc1ccccc1)N(C#N)Cc1cccc(Cl)c1`, half-maximal inhibition (IC50) required 88 nM.

`CN(C(=O)[C@H](Cc1ccccc1)NC(=O)CNc1c(F)cccc1F)N(C#N)Cc1ccc(Cl)cc1` came in with an IC50 of 987 nM.

For `CN(C(=O)[C@H](Cc1ccccc1)NC(=O)OCc1ccccc1)N(C#N)Cc1ccc([N+](=O)[O-])cc1`, the IC50 is 210 nM.

On to `COc1ccc(OC)c(CN(C#N)N(C)C(=O)[C@H](Cc2ccccc2)NC(=O)OCc2ccccc2)c1`, for which the IC50 is 826 nM.

The molecule `CN(C(=O)[C@H](Cc1ccccc1)NC(=O)[C@@H](Nc1ccc([N+](=O)[O-])cc1[N+](=O)[O-])C(C)(C)C)N(C#N)Cc1ccc(Cl)cc1` gave an IC50 of 2250 nM.

For the molecule `CN(C(=O)[C@H](Cc1ccccc1)NC(=O)[C@@H](NC(=O)C(F)(F)F)C(C)(C)C)N(C#N)Cc1ccc(Cl)cc1`, half-maximal inhibition (IC50) was put at 33 nM.

Consider `CN(C(=O)[C@H](Cc1ccccc1)NC(=O)OCc1ccccc1)N(C#N)Cc1ccccc1Br`, for which half-maximal inhibition (IC50) required 188 nM.

For the molecule `CN(C(=O)[C@H](Cc1ccccc1)NC(=O)OCc1ccccc1)N(C#N)Cc1ccc(Br)c(Cl)c1F`, the IC50 is 125 nM.

Regarding `CN(C(=O)[C@H](Cc1ccccc1)NC(=O)OCc1ccccc1)N(C#N)Cc1ccc(Br)c(Cl)c1`, half-maximal inhibition (IC50) required 192 nM.

Molecule `CN(C(=O)[C@H](Cc1ccccc1)NC(=O)OCc1ccccc1)N(C#N)Cc1ccccc1F` showed an IC50 of 137 nM.

`CN(C(=O)[C@H](Cc1ccccc1)NC(=O)OCc1ccccc1)N(C#N)Cc1ccc(Br)cc1`: the IC50 was found to be 200 nM.

`CN(C(=O)[C@H](Cc1ccccc1)NC(=O)OCc1ccccc1)N(C#N)Cc1cccc(Br)c1` displayed an IC50 of 86 nM.

The target of another assay is Procathepsin L (Homo sapiens, UniProt P07711). As to the kind of experiment: Inhibition of human cathepsin L using Z-Phe-Arg-pNA as substrate incubated for 60 mins.
Chain of Procathepsin L (P07711 whole entry): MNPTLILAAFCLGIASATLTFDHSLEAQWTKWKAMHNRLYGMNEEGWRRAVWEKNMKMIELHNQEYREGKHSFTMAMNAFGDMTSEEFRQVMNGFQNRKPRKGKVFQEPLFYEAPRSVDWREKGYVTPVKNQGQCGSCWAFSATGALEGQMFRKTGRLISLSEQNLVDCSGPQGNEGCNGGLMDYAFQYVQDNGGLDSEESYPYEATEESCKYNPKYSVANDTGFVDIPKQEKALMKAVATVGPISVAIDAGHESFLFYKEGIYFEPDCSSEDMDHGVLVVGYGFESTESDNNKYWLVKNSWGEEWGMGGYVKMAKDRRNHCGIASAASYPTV
Conditions: not given
With `CN(C(=O)[C@H](Cc1cccc(F)c1)NC(=O)[C@@H](NC(=O)c1cccs1)C(C)(C)C)N(C#N)Cc1cccc(Cl)c1F`, affinity was put at a Ki of 178 nM.

On to `CN(C(=O)[C@H](Cc1ccccc1Cl)NC(=O)[C@@H](NC(=O)c1cccs1)C(C)(C)C)N(C#N)Cc1cccc(Cl)c1F`, for which the Ki stood at 56.1 nM.

In turn, `CN(C(=O)[C@H](Cc1ccccc1F)NC(=O)[C@@H](NC(=O)c1cccs1)C(C)(C)C)N(C#N)Cc1cccc(Cl)c1F` registered an inhibitory constant (Ki) of 49.6 nM.
